From US7915293B2, “Ubiquitin ligase inhibitors” (Rigel Pharmaceuticals, Inc., priority 2003, dated 2011)

Experiments:
Design in all cases: key: “+” indicates that the compound exibits inhibitory activity; “−” indicates that low or no inhibitory activity was observed
[1] = biological target: E3 (His-APC11/APC2-"APC") (Homo sapiens, UniProt Q9NYG5+Q9UJX6); assay: Plate-based E3 ligase assay (APC FLAG), auto-ubiquitination; assay type: biochemical; conditions: for APC Flag 8 pt: 8 concentrations tested
E3 (His-APC11/APC2-"APC"), sequence (Q9NYG5 whole entry): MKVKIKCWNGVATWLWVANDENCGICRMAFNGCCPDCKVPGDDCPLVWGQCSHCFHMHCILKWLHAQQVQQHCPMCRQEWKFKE
E3 (His-APC11/APC2-"APC"), sequence (Q9UJX6 whole entry): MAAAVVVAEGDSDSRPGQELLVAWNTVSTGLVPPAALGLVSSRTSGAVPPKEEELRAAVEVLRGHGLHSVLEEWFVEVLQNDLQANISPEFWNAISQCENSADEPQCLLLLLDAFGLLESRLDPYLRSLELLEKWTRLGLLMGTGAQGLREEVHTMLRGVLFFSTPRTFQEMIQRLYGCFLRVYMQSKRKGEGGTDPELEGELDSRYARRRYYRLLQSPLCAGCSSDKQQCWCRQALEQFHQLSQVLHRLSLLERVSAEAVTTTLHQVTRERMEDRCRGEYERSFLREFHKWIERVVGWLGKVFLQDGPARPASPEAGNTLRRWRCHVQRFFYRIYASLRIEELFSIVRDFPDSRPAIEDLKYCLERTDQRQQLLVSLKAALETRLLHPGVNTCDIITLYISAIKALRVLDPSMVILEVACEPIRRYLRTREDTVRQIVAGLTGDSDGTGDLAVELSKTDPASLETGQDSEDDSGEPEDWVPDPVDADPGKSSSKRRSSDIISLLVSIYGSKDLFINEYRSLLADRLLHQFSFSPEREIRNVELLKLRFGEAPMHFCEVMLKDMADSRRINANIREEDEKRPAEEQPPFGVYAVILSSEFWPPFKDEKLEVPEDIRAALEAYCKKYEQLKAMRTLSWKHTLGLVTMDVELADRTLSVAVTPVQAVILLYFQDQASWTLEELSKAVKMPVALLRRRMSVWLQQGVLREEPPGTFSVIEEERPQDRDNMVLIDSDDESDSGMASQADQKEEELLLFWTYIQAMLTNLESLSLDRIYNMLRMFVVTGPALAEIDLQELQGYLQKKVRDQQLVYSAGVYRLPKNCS
Summary of the method: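 His-APC11/APC2 auto-ubiquitination was run in casein-blocked nickel plates for 1 h at room temperature, with E1 at 5 ng/well, UbcH5c at 20 ng/well and APC at 100 ng/well. Buffer was 62.5 mM Tris pH 7.6, 3 mM MgCl2, 1 mM DTT, 2.5 mM ATP and Flag-ubiquitin at 100 ng/well. Detection used anti-Flag/HRP chemiluminescence, and IC50 was typically from 6 or 8 concentrations versus a DMSO control.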

A549 cells = assay: Cell proliferation assay, photographic image analysis of proliferation, apoptosis and death (PAD assay), A549; assay type: cell-based; conditions: 6 concentrations tested
Protocol: (§1) A549 (ATCC# CCL-185), HeLa (ATCC# CCL-2), HCT116 (ATCC# CCL-247), and H1299 (ATCC# CRL-5803) cells were maintained in T175 flasks following the ATCC recommended media and handling procedures. Flasks reaching approximately 70% confluency were trypsinized and resuspended in RPMI media (Cell-Gro catalog number 10-040-CM) modified to contain 5% FBS, 100 ug/mlPen/Strep (Cell-Gro catalog number 30-002-CL), and 0.3 mg/ml L-Glutamine (Cell-Gro catalog number 25-003-CL). A 20,000 cells/ml solution was made for plating. Cells were plated in black Packard 96 well plates by placing 100 μl per well (2,000 cells per well).
(§2) Compounds and additional media were added 24 hours after cell plating. A compound master plate was created with concentrations 500 times greater than the final concentration added to the cells. All compound testing was done in duplicate using 6.3 fold dilutions starting with 10 mM. All outside wells (and 4 internal wells) were DMSO controls. Taxol and at least one additional control were run on all plates. Three microliters of the compound master plate were added to deep well blocks containing 750 μl of RPMI media. One hundred microliters were transferred from the compound/media deep well blocks to the plated cells resulting in a 500 fold dilution of the compounds. Cells were grown at 37° C., 5% CO2 for 48 hours.
(§3) Cells to be analyzed by photography were fixed and stained. One hundred microliters of media were removed and 100 μl of 9.3% […] was added to each well. Plates were left on the benchtop for 45 minutes. A staining solution containing 1.55 μl of 1 mg/ml DAPI added to 18.75 ml PBS was warmed for 15 minutes at 37° C. The cells were aspirated prior to washing with 100 μl of PBS. Seventy microliters of PBS were aspirated and 170 μl of the DAPI solution were added to each well of fixed cells. Plates were left at room temperature for one hour then aspirated and washed twice with 100 μl of PBS. The stained cells were left at 4° C. for a minimum of 16 hours before photographic analysis with Array Scan II (Cellomics). Analysis of the photographic images to determine numbers of live cells (proliferation), apoptotic cells and dead cells, were according to the methods described in U.S. Provisional Patent Application Ser. No. 60/406,714, which incorporated herein in its entirety.

HeLa cells = assay: Cell proliferation assay, photographic image analysis of proliferation, apoptosis and death (PAD assay), HeLa; assay type: cell-based; conditions: 6 concentrations tested
Protocol: as §1, §2, §3

| SMILES | APC Flag 8 pt [1] | PAD Assay, A549 6 pt (A549 cells) | PAD Assay, HELA 6 pt (HeLa cells) | APC Flag (2 pt) ([1]; 2 concentrations tested) |
| --- | --- | --- | --- | --- |
| O=S(=O)(Nc1cc(Cl)cnc1Cl)c1ccc(Oc2ncc(C(F)(F)F)cc2Cl)cc1 [Compound 257, 4-{[3-chloro-5-(trifluoromethyl)pyridin-2-yl]oxy}-N-(2,5-dichloropyridin-3-yl) benzenesulfonamide] | + | + | + |  |
| O=S(=O)(Nc1c(F)cccc1F)c1ccc(Oc2ncc(C(F)(F)F)cc2Cl)cc1 [Compound 259, 4-{[3-chloro-5-(trifluoromethy)pyridin-2-yl]oxy}-N-(2,6-difluorophenyl)benzene sulfonamide] | + | − | − |  |
| O=[N+]([O-])c1ccc(Oc2ccc(S(=O)(=O)Nc3ccc(C(F)(F)F)cc3Cl)cc2Cl)c(C(F)(F)F)c1 [Compound 265, 3-chloro-N-[2-chloro-4-(trifluoromethyl)phenyl]-4-[4-nitro-2-(trifluoromethyl)phenoxy]benzenesulfonamide] | + | + | + |  |
| O=[N+]([O-])c1ccc(Oc2ccc(S(=O)(=O)Nc3cc(Cl)ccc3C(F)(F)F)cc2Cl)c(C(F)(F)F)c1 [Compound 267, 3-chloro-N-[5-chloro-2-(trifluoromethyl)phenyl]-4-[4-nitro-2-(trifluoromethyl)phenoxy]benzenesulfonamide] | + | + | + |  |
| O=S(=O)(Nc1cc(Cl)ccc1C(F)(F)F)c1ccc(Oc2ncc(C(F)(F)F)cc2Cl)cc1 [Compound 272, N-[5-chloro-2-(trifluoromethyl)phenyl]-4-{[3-chloro-5-(trifluoromethyl)pyridin-2-yl]oxy}benzenesulfonamide] | + | + | + |  |
| O=[N+]([O-])c1ccc(Oc2ccc(NS(=O)(=O)c3cc(Cl)ccc3Cl)cc2)cc1 [Compound 273, 2,5-dichloro-N-[4-(4-nitrophenoxy)phenyl]benzenesulfonamide] | + | + | − |  |
| O=S(=O)(Nc1ccc(Oc2ccc(F)cc2)c(Br)c1)c1cccc(Cl)c1 [Compound 282, N-[3-bromo-4-(4-fluorophenoxy)phenyl]-3-chlorobenzenesulfonamide] | + | + | − |  |
| COc1ccc(S(=O)(=O)Nc2ccc(Oc3cc(C(F)(F)F)ccc3Cl)cc2F)cc1 [Compound 287, N-{4-[2-chloro-5-(trifluoromethyl)phenoxy]-2-fluorophenyl}-4-methoxybenzenesulfonamide] | + | + | + |  |
| O=C(Nc1ccc(Oc2ccc(F)cc2)c(Br)c1)c1cccc(Cl)c1 [Compound 303] | − | + | + |  |
| O=C(Nc1cccc(Cl)c1)Nc1ccc(Oc2ccc(F)cc2)c(Br)c1 [Compound 304] | + | + | + |  |
| O=[N+]([O-])c1ccc(Oc2c(Cl)cc(S(=O)(=O)Nc3ccc4cn[nH]c4c3)cc2Cl)c(Cl)c1 [Example 171, 3,5-dichloro-4-(2-chloro-4-nitrophenoxy)-N-1H-indazol-6-ylbenzenesulfonamide] | − | + | − |  |
| O=[N+]([O-])c1ccc(Oc2c(Cl)cc(S(=O)(=O)Nc3cccc4c3OC(F)(F)C(F)(F)O4)cc2Cl)c(Cl)c1 [Example 192, 3,5-dichloro-4-(2-chloro-4-nitrophenoxy)-N-(2,2,3,3-tetrafluoro-2,3-dihydro-1,4-benzodioxin-5-yl)benzenesulfonamide] | + | − | − |  |
| O=[N+]([O-])c1ccc(Oc2c(Cl)cc(S(=O)(=O)Nc3cc(F)c(F)cc3F)cc2Cl)c(Cl)c1 [Example 199, 3,5-dichloro-4-(2-chloro-4-nitrophenoxy)-N-(2,4,5-trifluorophenyl)benzenesulfonamide] | + | + | + |  |
| Cc1cc(NS(=O)(=O)c2cc(Cl)c(Oc3ccc([N+](=O)[O-])cc3Cl)c(Cl)c2)no1 [Example 217, 3,5-dichloro-4-(2-chloro-4-nitrophenoxy)-N-(5-methylisoxazol-3-yl)benzenesulfonamide] |  | − | − | − (2 pt) |
| Cc1ccc(C(F)(F)F)cc1NS(=O)(=O)c1cc(Cl)c(Oc2ccc([N+](=O)[O-])cc2Cl)c(Cl)c1 [Example 229, 3,5-dichloro-4-(2-chloro-4-nitrophenoxy)-N-[2-methyl-5-(trifluoromethyl)phenyl] benzenesulfonamide] | + | + | + |  |
| CC(C)(C)c1cccc(C(C)(C)C)c1NS(=O)(=O)c1cc(Cl)c(Oc2ccc([N+](=O)[O-])cc2Cl)c(Cl)c1 [Example 231, 3,5-dichloro-4-(2-chloro-4-nitrophenoxy)-N-(2,6-di-tert-butylphenyl)benzenesulfonamide] | + | + | + |  |
| O=[N+]([O-])c1ccc(Oc2c(Cl)cc(S(=O)(=O)Nc3cccc(F)c3)cc2Cl)c(Cl)c1 [Example 232, 3,5-dichloro-4-(2-chloro-4-nitrophenoxy)-N-(3-fluorophenyl)benzenesulfonamide] | + | + | + |  |
| Cc1c(F)cccc1NS(=O)(=O)c1cc(Cl)c(Oc2ccc([N+](=O)[O-])cc2Cl)c(Cl)c1 [Example 234, 3,5-dichloro-4-(2-chloro-4-nitrophenoxy)-N-(3-fluoro-2-methylphenyl)benzene-sulfonamide] | + | + | + |  |
| Cc1cc(F)ccc1NS(=O)(=O)c1cc(Cl)c(Oc2ccc([N+](=O)[O-])cc2Cl)c(Cl)c1 [Example 236, 3,5-dichloro-4-(2-chloro-4-nitrophenoxy)-N-(4-fluoro-2-methylphenyl)benzene-sulfonamide] | + | + | + |  |
| O=[N+]([O-])c1ccc(Oc2c(Cl)cc(S(=O)(=O)Nc3cc(F)ccc3F)cc2Cl)c(Cl)c1 [Example 237, 3,5-dichloro-4-(2-chloro-4-nitrophenoxy)-N-(2,5-difluorophenyl)benzenesulfonamide] | + | + | + |  |
| O=[N+]([O-])c1ccc(Oc2c(Cl)cc(S(=O)(=O)Nc3c(F)cccc3F)cc2Cl)c(Cl)c1 [Example 238, 3,5-dichloro-4-(2-chloro-4-nitrophenoxy)-N-(2,6-difluorophenyl)benzenesulfonamide] | + | + | + |  |
